We go through 1 molecule from patent US20100256160A1, “METHOD OF ADMINISTERING AN ANTITUMOR COMPOUND” (NERVIANO MEDICAL SCIENCES S.R.L., priority 2006, published 2010).

The subject of series [1] is patients with refractory or resistant solid tumours. Description: Phase I dose escalation trial, 24 hours iv infusion once every two weeks: toxicity and response. Format: in vivo. The protocol:
(§1) A phase I pharmacological trial was carried out to investigate the iv administration of Compound 1 given in 24 hours infusion once every two weeks in patients with refractory or resistant solid tumours, including lung, colorectal, gastro-oesophageal, cervix, Ewing, renal, head and neck, mesothelioma and cancer of unknown primary.
This was a dose escalation study. Cohorts of 3-6 patients were sequentially allotted to progressively higher dose levels (DL) of Compound 1 based on the number of dose limiting toxicities (DLTs) observed. As per protocol, definition of DLTs were grade (G) 4 neutropenia lasting >7 days, febrile neutropenia, neutropenic infection, any G3 or 4 non-hematological drug related toxicities during the first cycle of treatment.
(§2) Forty patients were enrolled. Seven DLs were explored (45, 90, 180, 360, 500, 650 and 580 mg/m^2). […] Except one G3 diarrhea, pyrexia and fatigue in one patient each, all other drug related non-hematological adverse events were G1 or 2 (fatigue, anorexia, nausea, vomiting, and ejection fraction decreased). One DLT (neutropenic infection) in the 360 mg/m^2, 2 DLTs (neutropenic infection and febrile neutropenia) at DL 650 mg/m^2 and 2 DLTs at 580 mg/m^2 (G 3 liver enzyme increase and febrile neutropenia) were reported. The MTD has been exceeded at 650 and 580 mg/m^2.

For series [2], the system named is histone H3 phosphorylation. Put plainly: Histone H3 phosphorylation in skin biopsies of patients, phase I trial 24 hours infusion. The format is in vivo, human. As to conditions: 24 h iv infusion. How it is done: as §1, §2
Series [3] is described as follows: Pharmacokinetics in phase I trial, 24 hours iv infusion once every two weeks. The format is in vivo, human. As to conditions: patients. How it is done:
as §1
Neutropenia was the dose-limiting toxicity for Compound 1 and easily managed. […] Biomarker modulation occurred at ≧500 mg/m^2. […] The recommended dose for Phase II was 500 mg/m^2. Furthermore the protocol was amended to increase the dose up to 750 mg/m^2 with prophylactic treatment with G-CSF.

Series [4] concerns the target Aurora kinases (AKs) B (Homo sapiens, UniProt Q96GD4). Description: Inhibitory potency towards Aurora kinase B. Format: biochemical.
Series [5] deals with patients with advanced/metastatic solid tumors. Description: Two-center phase I dose escalation trial, 6-hours IV infusion weekly for 3 consecutive weeks in a 28-day cycle. The format is in vivo. The protocol:
The infusion duration was selected to reduce the potential for Cmax related toxicities. Forty patients were treated with doses ranging from 45 to 400 mg/m^2. […] In order to define the recommended dose for phase II, 330 mg/m^2 dose level was investigated.

In series [6] the test system is patients with hematopoietic malignancies such as relapsed/refractory acute leukemia. Put plainly: Phase I study, 3-hour intravenous infusion for three consecutive days every two weeks. The format is in vivo, human. Particulars: 100, 150, 210, and 280 mg/m^2/daily; ten patients. The protocol: A phase I pharmacological study to investigate the iv administration of Compound 1 given in a 3-hour intravenous infusion for three consecutive days every two weeks in patients with hematopoietic malignancies such as relapsed/refractory acute leukemia. Ten patients have been enrolled in 4 dose levels (100, 150, 210, and 280 mg/m^2/daily). […] Dose escalation is still proceeding.

The target in series [7] is T1, Aurora kinases (AKs) A (Homo sapiens, UniProt O14965).
T1 sequence (O14965 1-403): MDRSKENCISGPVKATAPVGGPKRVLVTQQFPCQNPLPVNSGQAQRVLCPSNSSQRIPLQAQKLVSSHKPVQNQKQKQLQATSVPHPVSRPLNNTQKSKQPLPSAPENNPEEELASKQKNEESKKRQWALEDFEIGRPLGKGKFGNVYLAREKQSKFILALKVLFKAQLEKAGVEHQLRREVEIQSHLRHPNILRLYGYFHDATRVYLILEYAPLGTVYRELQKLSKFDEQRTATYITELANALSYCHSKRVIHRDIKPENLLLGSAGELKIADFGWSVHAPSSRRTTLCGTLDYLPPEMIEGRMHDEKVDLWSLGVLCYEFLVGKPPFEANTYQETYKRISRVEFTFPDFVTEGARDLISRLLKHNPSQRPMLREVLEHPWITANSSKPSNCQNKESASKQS
Put plainly: Inhibitory potency towards Aurora kinase A. Format: biochemical.

In series [8] the target is T2, Aurora kinases (AKs) C (Homo sapiens, UniProt Q9UQB9).
T2 sequence (Q9UQB9 1-309): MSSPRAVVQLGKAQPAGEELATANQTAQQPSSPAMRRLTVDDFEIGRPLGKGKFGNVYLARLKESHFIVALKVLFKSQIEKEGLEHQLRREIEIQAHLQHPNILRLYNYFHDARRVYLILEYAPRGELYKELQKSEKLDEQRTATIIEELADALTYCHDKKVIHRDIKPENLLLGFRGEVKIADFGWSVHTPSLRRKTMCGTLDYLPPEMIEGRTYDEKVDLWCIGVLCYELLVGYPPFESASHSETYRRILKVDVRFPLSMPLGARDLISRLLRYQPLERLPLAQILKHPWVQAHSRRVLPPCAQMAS
Put plainly: Inhibitory potency towards Aurora kinase C. The format is biochemical.

Aurora kinases (AKs) B, sequence (Q96GD4 whole entry, the tested form may be a part): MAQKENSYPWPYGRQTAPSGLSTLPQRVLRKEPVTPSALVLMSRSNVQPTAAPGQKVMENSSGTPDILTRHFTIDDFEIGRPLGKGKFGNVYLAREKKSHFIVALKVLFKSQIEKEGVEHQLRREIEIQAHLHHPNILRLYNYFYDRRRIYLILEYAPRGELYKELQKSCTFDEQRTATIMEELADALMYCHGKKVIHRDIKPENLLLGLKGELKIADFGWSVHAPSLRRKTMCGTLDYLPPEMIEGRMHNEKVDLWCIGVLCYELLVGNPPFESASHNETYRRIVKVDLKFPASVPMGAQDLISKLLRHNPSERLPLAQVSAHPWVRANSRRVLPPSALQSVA

`CO[C@@H](C(=O)N1Cc2n[nH]c(NC(=O)c3ccc(N4CCN(C)CC4)cc3)c2C1)c1ccccc1` [Compound 1, N-{5-[(2R)-2-methoxy-2-phenylethanoyl]-1,4,5,6-tetrahydropyrrolo[3,4-c]pyrazol-3-yl}-4-(4-methylpiperazin-1-yl)benzamide]: the “MTD (exceeded at 650 and 580 mg/m^2)” value in series [1] (24 h iv infusion every two weeks) is on record as under 580 mg/m^2. Also, the “number of pts with stable disease as best response” value in series [1] (forty patients enrolled) is “Nine”. In addition, in series [1] (human, in vivo, iv), the “recommended dose for Phase II” value is 500 mg/m^2. Also, in series [1] (in vivo, iv), the dose-limiting toxicity result is “Neutropenia” and the “non-hematological drug related adverse events, severity” value was “mild or moderate”. Further, in series [1] (of the nine pts with stable disease), the “number of stable-disease pts with response duration >6 months” value stood at 3. Besides, in series [2], the “dose at which inhibition of histone H3 phosphorylation (biomarker modulation) was evident” value is at least 500 mg/m^2. Further, the clearance (in general, the volume of plasma or blood freed of the substance per unit of time) in series [3] (human, in vivo) fell in the range of 5 to 7.5 mL/min/kg. In series [3] (human, in vivo, read-out: terminal half-life), the half-life (commonly the time in which the quantity being followed falls by half) was in the range of 18 to 30 h. Further, in series [3], the pharmacokinetic behavior entry is “dose-proportional and time-independent behavior”; the “pharmacokinetic linearity and variability” value is “linear with low inter-individual variability”; the volume of distribution was 2-4 times total body water. In addition, the “inhibitory potency towards Aurora kinase B” value in series [4] was “significant inhibitory potency”. Further, the “uncomplicated grade 3 neutropenia” value in series [5] (250 mg/m^2) is given as “frequently reported”. In series [5] (45 to 400 mg/m^2), the drug-related deaths result is on record as “No drug-related deaths”. The hematological toxicity reported result in series [5] (45 to 400 mg/m^2, 6-hours IV infusion days 1, 8, 15 every 28 days) is given as “Uncomplicated neutropenia of short duration”. For the same molecule, the “drug-related non hematological toxicities, severity” value in series [5] (G1/G2 diarrhea, nausea, vomiting, fatigue, anorexia and blood pressure increase) was “mild or moderate”. Moreover, the “number of patients with stable disease as best response” value in series [5] (forty patients treated) was “Seven”. For the same molecule, the “number of stable-disease patients with response lasting more than seven months” value in series [5] (of the seven patients with stable disease) is listed as “four”. Further, the tolerability of regimen entry in series [6] is listed as “well tolerated”. For the same molecule, the “inhibitory potency towards Aurora kinase A” value in series [7] is “significant inhibitory potency”. In addition, the “inhibitory potency towards Aurora kinase C” value in series [8] is listed as “significant inhibitory potency”.
